From PubChem BioAssay AID1259407 (Chemical Carcinogenesis Research Information System (CCRIS), 2018)
Calls of active or inactive are those of the source. How the calls were made is not given here.

Test system: CCRIS mutagenicity, Ames/micronucleus/aberration tests
Assay: CCRIS mutagenicity studies
[1] = Test System: AMES SALMONELLA TYPHIMURIUM, Strain/Indicator: TA98, Metabolic Activation: NONE, Method: STANDARD PLATE
[2] = Test System: AMES SALMONELLA TYPHIMURIUM, Strain/Indicator: TA100, Metabolic Activation: NONE, Method: STANDARD PLATE
[3] = Test System: AMES SALMONELLA TYPHIMURIUM, Strain/Indicator: TA100, Metabolic Activation: RAT, LIVER, S-9, AROCLOR 1254, Method: STANDARD PLATE
[4] = Test System: AMES SALMONELLA TYPHIMURIUM, Strain/Indicator: TA1535, Metabolic Activation: NONE, Method: STANDARD PLATE
[5] = Test System: AMES SALMONELLA TYPHIMURIUM, Strain/Indicator: TA1535, Metabolic Activation: RAT, LIVER, S-9, AROCLOR 1254, Method: STANDARD PLATE
[6] = Test System: AMES SALMONELLA TYPHIMURIUM, Strain/Indicator: TA1537, Metabolic Activation: NONE, Method: STANDARD PLATE
[7] = Test System: AMES SALMONELLA TYPHIMURIUM, Strain/Indicator: TA98, Metabolic Activation: NONE, Method: PREINCUBATION
[8] = Test System: AMES SALMONELLA TYPHIMURIUM, Strain/Indicator: TA100, Metabolic Activation: NONE, Method: PREINCUBATION

For `Oc1cc(O)c2c(c1)O[C@H](c1cc(O)c(O)c(O)c1)[C@H](O)C2`, the mutagenic call (End Point: In vitro chromosomal aberrations, Test System: Chinese hamster (CHL/IU) cells, Metabolic Activation: None) was “active; positive (structural changes: gaps, breaks, aberrations)”, the mutagenic call (Test System: Ames Salmonella typhimurium, Strain/Indicator: TA102, Metabolic Activation: None, Method: Preincubation) was “inactive; negative” and the mutagenic call (Test System: Ames Salmonella typhimurium, Strain/Indicator: TA102, Metabolic Activation: Rat, Liver, S-9, Aroclor 1254 in 0.154 M KCl, Method: Preincubation) was “inactive; negative”. For the same compound, the mutagenic call (Test System: E. coli, Strain/Indicator: WP2 uvrA/pKM101, Metabolic Activation: None, Method: Preincubation) was “inactive; negative”.

`CC1(C)[C@@H]2CC[C@@]1(C)C(=O)C2=O` was tested, and the mutagenic call (Test System: AMES SALMONELLA TYPHIMURIUM, Strain/Indicator: TA97A, Metabolic Activation: NONE, Method: STANDARD PLATE) was “inactive; negative”, the mutagenic call (Test System: AMES SALMONELLA TYPHIMURIUM, Strain/Indicator: TA97A, Metabolic Activation: RAT LIVER S-9, AROCLOR 1254, Method: STANDARD PLATE) was “inactive; negative” and the mutagenic call (Test System: AMES SALMONELLA TYPHIMURIUM, Strain/Indicator: TA98, Metabolic Activation: HAMSTER, LIVER, S-9, AROCLOR 1254, Method: STANDARD PLATE) was “inactive; negative”. For the same compound, the mutagenic call [1] was “inactive; negative”, the mutagenic call (Test System: AMES SALMONELLA TYPHIMURIUM, Strain/Indicator: TA98, Metabolic Activation: RAT LIVER S-9, AROCLOR 1254, Method: STANDARD PLATE) was “inactive; negative” and the mutagenic call (Test System: AMES SALMONELLA TYPHIMURIUM, Strain/Indicator: TA98, Metabolic Activation: RAT, LIVER, S-9, AROCLOR 1254, Method: STANDARD PLATE) was “inactive; negative”. The mutagenic call (Test System: AMES SALMONELLA TYPHIMURIUM, Strain/Indicator: TA100, Metabolic Activation: HAMSTER, LIVER, S-9, AROCLOR 1254, Method: STANDARD PLATE) was “inactive; negative”, the mutagenic call [2] was “inactive; negative” and the mutagenic call (Test System: AMES SALMONELLA TYPHIMURIUM, Strain/Indicator: TA100, Metabolic Activation: RAT LIVER S-9, AROCLOR 1254, Method: STANDARD PLATE) was “inactive; negative”. For the same compound, the mutagenic call [3] was “inactive; negative”, the mutagenic call (Test System: AMES SALMONELLA TYPHIMURIUM, Strain/Indicator: TA102, Metabolic Activation: NONE, Method: STANDARD PLATE) was “inactive; negative” and the mutagenic call (Test System: AMES SALMONELLA TYPHIMURIUM, Strain/Indicator: TA102, Metabolic Activation: RAT LIVER S-9, AROCLOR 1254, Method: STANDARD PLATE) was “inactive; negative”. The mutagenic call (Test System: AMES SALMONELLA TYPHIMURIUM, Strain/Indicator: TA1535, Metabolic Activation: HAMSTER, LIVER, S-9, AROCLOR 1254, Method: STANDARD PLATE) was “inactive; negative”, the mutagenic call [4] was “inactive; negative” and the mutagenic call [5] was “inactive; negative”. The mutagenic call (Test System: AMES SALMONELLA TYPHIMURIUM, Strain/Indicator: TA1537, Metabolic Activation: HAMSTER, LIVER, S-9, AROCLOR 1254, Method: STANDARD PLATE) was “inactive; negative”, the mutagenic call [6] was “inactive; negative” and the mutagenic call (Test System: AMES SALMONELLA TYPHIMURIUM, Strain/Indicator: TA1537, Metabolic Activation: RAT, LIVER, S-9, AROCLOR 1254, Method: STANDARD PLATE) was “inactive; negative”. For the same compound, the mutagenic call (Test System: AMES SALMONELLA TYPHIMURIUM, Strain/Indicator: TA1538, Metabolic Activation: HAMSTER, LIVER, S-9, AROCLOR 1254, Method: STANDARD PLATE) was “inactive; negative”, the mutagenic call (Test System: AMES SALMONELLA TYPHIMURIUM, Strain/Indicator: TA1538, Metabolic Activation: NONE, Method: STANDARD PLATE) was “inactive; negative” and the mutagenic call (Test System: AMES SALMONELLA TYPHIMURIUM, Strain/Indicator: TA1538, Metabolic Activation: RAT, LIVER, S-9, AROCLOR 1254, Method: STANDARD PLATE) was “inactive; negative”. For the same compound, the mutagenic call (Test System: Mouse lymphoma, Strain/Indicator: L5178Y (tk+/tk-), Metabolic Activation: None, Method: Suspension/plate) was “active; positive” and the mutagenic call (Test System: Mouse lymphoma, Strain/Indicator: L5178Y (tk+/tk-), Metabolic Activation: Rat, Liver, S-9, Aroclor 1254, Method: Suspension/plate) was “inactive; negative”.

`CCOCCOC(C)=O` was tested, and the mutagenic call [7] was “inactive; negative”, the mutagenic call (Test System: AMES SALMONELLA TYPHIMURIUM, Strain/Indicator: TA98, Metabolic Activation: RAT LIVER S-9, PHENOBARBITAL AND BETA-NAPHTHOFLAVONE, Method: PREINCUBATION) was “inactive; negative” and the mutagenic call [8] was “inactive; negative”. For the same compound, the mutagenic call (Test System: AMES SALMONELLA TYPHIMURIUM, Strain/Indicator: TA100, Metabolic Activation: RAT LIVER S-9, PHENOBARBITAL AND BETA-NAPHTHOFLAVONE, Method: PREINCUBATION) was “inactive; negative”, the mutagenic call (Test System: AMES SALMONELLA TYPHIMURIUM, Strain/Indicator: TA102, Metabolic Activation: NONE, Method: PREINCUBATION) was “inactive; negative” and the mutagenic call (Test System: AMES SALMONELLA TYPHIMURIUM, Strain/Indicator: TA102, Metabolic Activation: RAT LIVER S-9, PHENOBARBITAL AND BETA-NAPHTHOFLAVONE, Method: PREINCUBATION) was “inactive; negative”. The mutagenic call (Test System: AMES SALMONELLA TYPHIMURIUM, Strain/Indicator: TA104, Metabolic Activation: NONE, Method: PREINCUBATION) was “inactive; negative”, the mutagenic call (Test System: AMES SALMONELLA TYPHIMURIUM, Strain/Indicator: TA104, Metabolic Activation: RAT LIVER S-9, PHENOBARBITAL AND BETA-NAPHTHOFLAVONE, Method: PREINCUBATION) was “inactive; negative” and the mutagenic call (Test System: AMES SALMONELLA TYPHIMURIUM, Strain/Indicator: TA1535, Metabolic Activation: NONE, Method: PREINCUBATION) was “inactive; negative”. For the same compound, the mutagenic call (Test System: AMES SALMONELLA TYPHIMURIUM, Strain/Indicator: TA1535, Metabolic Activation: RAT LIVER S-9, PHENOBARBITAL AND BETA-NAPHTHOFLAVONE, Method: PREINCUBATION) was “inactive; negative”, the mutagenic call (Test System: AMES SALMONELLA TYPHIMURIUM, Strain/Indicator: TA1537, Metabolic Activation: NONE, Method: PREINCUBATION) was “inactive; negative” and the mutagenic call (Test System: AMES SALMONELLA TYPHIMURIUM, Strain/Indicator: TA1537, Metabolic Activation: RAT LIVER S-9, PHENOBARBITAL AND BETA-NAPHTHOFLAVONE, Method: PREINCUBATION) was “inactive; negative”. For the same compound, the mutagenic call (Test System: E.COLI, Strain/Indicator: WP2UVRA/PKM101, Metabolic Activation: NONE, Method: PREINCUBATION) was “inactive; negative”, the mutagenic call (Test System: E.COLI, Strain/Indicator: WP2UVRA/PKM101, Metabolic Activation: RAT LIVER S-9, PHENOBARBITAL AND BETA-NAPHTHOFLAVONE, Method: PREINCUBATION) was “inactive; negative” and the mutagenic call (Test System: E.COLI, Strain/Indicator: WP2UVRA, Metabolic Activation: NONE, Method: PREINCUBATION) was “inactive; negative”. The mutagenic call (Test System: E.COLI, Strain/Indicator: WP2UVRA, Metabolic Activation: RAT LIVER S-9, PHENOBARBITAL AND BETA-NAPHTHOFLAVONE, Method: PREINCUBATION) was “inactive; negative”.

`O=C(Nc1cccc(Cl)c1)c1csc([N+](=O)[O-])c1` was tested, and the mutagenic call [1] was “active; positive” and the mutagenic call [2] was “active; positive”.

`O=CN(O)c1ccc(Oc2c(Cl)cc(Cl)cc2Cl)cc1` was tested, and the mutagenic call [2] was “inactive; negative” and the mutagenic call (Test System: AMES SALMONELLA TYPHIMURIUM, Strain/Indicator: TA100, Metabolic Activation: RAT, LIVER, S-9, KANECLOR 500, Method: STANDARD PLATE) was “active; positive”.

`N[C@@H](Cc1ccc(N(CCCl)CCCl)cc1)C(=O)O` was tested, and the mutagenic call (End Point: In vivo chromosomal aberrations, Test System: Bone marrow cells, Species: Mouse, Strain/Sex: C57B1/6 / Female (base p53+/-), Route: Oral (gavage)) was “active; positive”, the mutagenic call (End Point: In vivo chromosomal aberrations, Test System: Splenocytes, Species: Mouse, Strain/Sex: C57B1/6 / Female (base p 53+/-), Route: Oral (gavage)) was “active; positive” and the mutagenic call [1] was “inactive; negative”. For the same compound, the mutagenic call (Test System: AMES SALMONELLA TYPHIMURIUM, Strain/Indicator: TA98, Metabolic Activation: RAT, LIVER, S-9, AROCLOR 1254 (30%), Method: PREINCUBATION) was “inactive; negative”, the mutagenic call (Test System: AMES SALMONELLA TYPHIMURIUM, Strain/Indicator: TA100, Metabolic Activation: HAMSTER, LIVER, S-9, AROCLOR 1254 (30%), Method: PREINCUBATION) was “active; positive” and the mutagenic call [8] was “active; positive”. The mutagenic call [2] was “active; positive”, the mutagenic call (Test System: AMES SALMONELLA TYPHIMURIUM, Strain/Indicator: TA100, Metabolic Activation: RAT, LIVER, S-9, AROCLOR 1254 (30%), Method: PREINCUBATION) was “active; positive” and the mutagenic call [3] was “active; positive”. The mutagenic call [4] was “active; positive”, the mutagenic call [5] was “active; positive” and the mutagenic call [6] was “inactive; negative”. The mutagenic call (Test System: E. COLI, Strain/Indicator: WP2 (HCR), Metabolic Activation: S-9, Method: STANDARD PLATE) was “inactive; negative”.

With `Cc1c2ccccc2c(COS(=O)(=O)O)c2ccc3ccccc3c12` the mutagenic call [7] was “active; positive”.
